Measured values reported in paper PMC5041982, “Small-molecule inhibition of STAT3 in radioresistant head and neck squamous cell carcinoma” (Oncotarget, 2016).
Like-named read-outs stand apart in the source and are kept apart here.

Key:
STAT3 [1] = target: T1, STAT3 (Homo sapiens, UniProt P40763); experiment: STAT3/pY-peptide binding surface plasmon resonance (SPR) assay; settings: for Inhibition of STAT3 binding to pY-peptide compared with C188: SPR; for IC50: STAT3 200 nM, EGFR pY1068 dodecapeptide, mean, n ≥ 2, read-out: pY-Peptide Binding (SPR) IC50
T1 sequence (P40763 whole entry, species assumed): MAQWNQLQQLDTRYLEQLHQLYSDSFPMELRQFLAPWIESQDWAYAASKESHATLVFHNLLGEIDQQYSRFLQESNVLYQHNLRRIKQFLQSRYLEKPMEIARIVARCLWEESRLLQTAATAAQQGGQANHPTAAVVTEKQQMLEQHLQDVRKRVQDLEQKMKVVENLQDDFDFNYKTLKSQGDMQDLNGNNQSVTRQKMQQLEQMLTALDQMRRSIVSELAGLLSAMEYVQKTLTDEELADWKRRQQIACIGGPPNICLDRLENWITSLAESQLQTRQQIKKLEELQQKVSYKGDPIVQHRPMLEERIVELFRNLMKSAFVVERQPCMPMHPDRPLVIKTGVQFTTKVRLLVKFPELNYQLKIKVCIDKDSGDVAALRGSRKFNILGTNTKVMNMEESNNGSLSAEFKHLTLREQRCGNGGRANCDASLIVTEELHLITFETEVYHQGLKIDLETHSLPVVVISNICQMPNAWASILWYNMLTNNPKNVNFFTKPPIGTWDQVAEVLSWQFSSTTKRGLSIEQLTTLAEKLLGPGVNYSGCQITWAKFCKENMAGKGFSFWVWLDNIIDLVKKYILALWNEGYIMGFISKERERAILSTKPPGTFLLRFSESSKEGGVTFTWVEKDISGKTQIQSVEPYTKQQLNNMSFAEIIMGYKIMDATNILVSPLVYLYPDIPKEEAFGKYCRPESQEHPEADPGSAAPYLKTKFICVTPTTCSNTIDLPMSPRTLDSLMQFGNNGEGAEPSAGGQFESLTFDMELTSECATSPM
Description: The equilibrium binding levels obtained ± compound were normalized (resonance obtained in the presence of compound ÷ the resonance obtained in the absence of compound × 100) and plotted against Log [nM] […] B. Inhibition of ligand-stimulated STAT phosphorylation, measured by phosphoflow. Serum-starved (1 hour) Kasumi-1 cells, pre-incubated with compound/DMSO (1 hour), were treated with G-CSF (10 ng/ml, 15 min, left two panels) or IFN-γ (10ng/ml, 15 min, right panel). Cells were permeabilized and stained with Alexa647-pSTAT3, and PE-pSTAT1 antibodies and analyzed on BD LSR2. FCS files were uploaded to Cytobank for pSTAT3 and pSTAT1 quantitation. Histograms depicting pSTAT3 and pSTAT1 levels are shown. C. Mean fluorescence (pSTAT3/1) levels were plotted as function the Log [M] compound, and IC50 calculated using GraphPad. […] D. Inhibition of ligand-stimulated STAT phosphorylation, measured by Luminex. Serum-starved (1 hour) Kasumi-1 cells, pre-incubated with compound/DMSO (0/0.1/0.3/1/3/10/100 μM, 1 hour), were treated with G-CSF (10 ng/ml, 15′). Total protein extracts of cells were assayed for pSTAT3, pSTAT1, and GAPDH levels by Luminex. GAPDH-normalized pSTAT3 or pSTAT1 values were divided by this ratio for untreated cells and expressed in percentage. These values were plotted as a function of Log [M] compound, and IC50 values calculated using GraphPad. […]
3-D pharmacophore sorting used to evaluate the effect of each compound on STAT3 binding. Responses were normalized by dividing the […]
fingerprint screening were converted into 3-D structures compounds at 2 min and multiplying by 100. IC values […]
for analysis as described below. were determined by plotting % maximum response as a 3-D pharmacophore generation function of log concentration of compound and fitting the Each molecular chemical feature, including experimental points to a competitive binding model using hydrogen bond donor, hydrogen bond acceptor, positive a four parameter logistic equation: R = Rhigh − (Rhigh − R low)/ (1 + conc/A1)^A2, where R = percent response at and negative ionizable group, and hydrophobic region, inhibitor concentration, R = percent response with no was generated using the LigandScout application compound, R= percent response at highest compound high framework and projected into 3-D space. concentration, A2 = fitting parameter (slope) and A1 = low Feature-pairing IC50 (BIAevaluation Software version 4.1). The inhibition Each chemical feature was converted into distance constant (Ki) was derived from the Cheng-Prusoff bin and the complete set of distance bins used to construct equation Ki=IC50/(1+[C]/Kd) as used by Halling et al a cost matrix. The most favorable pairing based on cost where C stands for STAT3 concentration used in the SPR matrix was identified. assay and Kd denotes the dissociation constant for STAT3 3-D pharmacophore transformation binding to its phosphorylated EGFR ligand in the SPR […]
STAT3/pY-peptide binding assay and total protein extracted from cell pellets. […]
STAT3 binding assays were performed at 25 °C (Millipore, Danvers, MA) coupled to antibody against

pSTAT3 (Tyr-705) = target: T2, pSTAT3 (Tyr-705) (Homo sapiens, UniProt P40763); experiment: Phosphoflow, G-CSF-induced STAT3 phosphorylation in Kasumi-1 cells; type: cell-based; settings: Kasumi-1, G-CSF 10 ng/ml 15 min; mean, n ≥ 2; read-out: Ligand Induced Phosphorylation (Phosphoflow) pSTAT3 (GCSF) IC50
T2 construct: endogenous in cells; host or cells: Kasumi-1
T2 sequence (P40763 whole entry): as the sequence (P40763 whole entry, species assumed) above
Description: (§1) The equilibrium binding levels obtained ± compound were normalized (resonance obtained in the presence of compound ÷ the resonance obtained in the absence of compound × 100) and plotted against Log [nM] […] B. Inhibition of ligand-stimulated STAT phosphorylation, measured by phosphoflow. Serum-starved (1 hour) Kasumi-1 cells, pre-incubated with compound/DMSO (1 hour), were treated with G-CSF (10 ng/ml, 15 min, left two panels) or IFN-γ (10ng/ml, 15 min, right panel). Cells were permeabilized and stained with Alexa647-pSTAT3, and PE-pSTAT1 antibodies and analyzed on BD LSR2. FCS files were uploaded to Cytobank for pSTAT3 and pSTAT1 quantitation. Histograms depicting pSTAT3 and pSTAT1 levels are shown. C. Mean fluorescence (pSTAT3/1) levels were plotted as function the Log [M] compound, and IC50 calculated using GraphPad. […] D. Inhibition of ligand-stimulated STAT phosphorylation, measured by Luminex. Serum-starved (1 hour) Kasumi-1 cells, pre-incubated with compound/DMSO (0/0.1/0.3/1/3/10/100 μM, 1 hour), were treated with G-CSF (10 ng/ml, 15′). Total protein extracts of cells were assayed for pSTAT3, pSTAT1, and GAPDH levels by Luminex. GAPDH-normalized pSTAT3 or pSTAT1 values were divided by this ratio for untreated cells and expressed in percentage. These values were plotted as a function of Log [M] compound, and IC50 values calculated using GraphPad.
(§2) Phosphoflow analysis was done as described in Xu et al. Briefly, Kasumi-1 cells, were serum-starved, pre-treated with compound or DMSO (1 hour, RT) and then stimulated with 20 μl of GCSF (10 ng/ml) for 15 minutes at 37°C. The cells were then permeabilized and stained with Alexa647-pSTAT3, Alexa488-pSTAT5 and PE-pSTAT1 antibodies and analyzed using the BD LSR2. FCS files were exported and uploaded to Cytobank for determination of phosphoproteins as earlier. Gating was done on live, single cells and then gates selected for positive ligand-activated pSTAT3 and pSTAT1. IC50 values were calculated using the GraphPad Prism.

pSTAT5 = experiment: Phosphoflow, G-CSF-induced pSTAT5 in Kasumi-1 cells; type: cell-based; settings: mean, n ≥ 2, read-out: Ligand Induced Phosphorylation (Phosphoflow) pSTAT5 (G-CSF) IC50
Description: as §2

pSTAT1 (Tyr-701) = target: T3, pSTAT1 (Tyr-701) (Homo sapiens, UniProt P42224); experiment: Phosphoflow, IFN-γ-induced pSTAT1 in Kasumi-1 cells; type: cell-based; settings: Kasumi-1, IFN-γ 10 ng/ml 15 min; mean, n ≥ 2; read-out: Ligand Induced Phosphorylation (Phosphoflow) pSTAT1 (IFN-γ) IC50
T3 construct: endogenous in cells; host or cells: Kasumi-1
T3 sequence (P42224 1-750): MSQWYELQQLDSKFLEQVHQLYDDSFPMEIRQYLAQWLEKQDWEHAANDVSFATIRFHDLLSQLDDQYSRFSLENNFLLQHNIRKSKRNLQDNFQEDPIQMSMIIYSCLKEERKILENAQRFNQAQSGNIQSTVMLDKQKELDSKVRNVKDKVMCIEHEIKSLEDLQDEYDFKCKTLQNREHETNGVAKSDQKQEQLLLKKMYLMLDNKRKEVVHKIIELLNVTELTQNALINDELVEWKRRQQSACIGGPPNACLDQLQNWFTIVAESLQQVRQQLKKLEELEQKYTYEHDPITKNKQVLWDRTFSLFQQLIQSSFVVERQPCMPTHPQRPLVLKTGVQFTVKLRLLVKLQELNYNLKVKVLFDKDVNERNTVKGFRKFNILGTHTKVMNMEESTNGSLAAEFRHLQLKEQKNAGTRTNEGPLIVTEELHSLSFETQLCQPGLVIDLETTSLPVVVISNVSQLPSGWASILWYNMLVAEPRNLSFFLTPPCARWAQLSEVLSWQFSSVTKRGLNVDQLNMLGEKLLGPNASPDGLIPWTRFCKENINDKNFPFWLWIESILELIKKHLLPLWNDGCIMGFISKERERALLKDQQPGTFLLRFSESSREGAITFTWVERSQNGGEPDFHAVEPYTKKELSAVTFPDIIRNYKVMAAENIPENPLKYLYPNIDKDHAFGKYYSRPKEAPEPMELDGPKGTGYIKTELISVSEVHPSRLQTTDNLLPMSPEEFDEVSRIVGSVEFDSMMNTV
Description: as §1, §2

[2] = tested on: normal murine bone marrow colony formation; experiment: Normal murine bone marrow colony formation; type: cell-based; settings: studies not shown (Tweardy et al 2010, unpublished)
tumor cells = settings: read-out: IC50 killing of tumor cells; cited from earlier work
STAT3 [3] = target: T1, STAT3; parameters: method as in PMID 24308725; settings: read-out: IC50 inhibition of STAT3 in a luciferase reporter assay; cited from earlier work
STAT3 [4] = target: T1, STAT3; parameters: method as in PMID 17114005; settings: read-out: IC50 inhibition of STAT3 binding to pY-peptide; cited from earlier work
pSTAT3 = settings: read-out: IC50 inhibition of cytokine-induced pSTAT3 levels; cited from earlier work

Inhibition of STAT3 binding to pY-peptide compared with C188 (STAT3 [1])	IC50 (STAT3 [1])	IC50 (pSTAT3 (Tyr-705))	IC50 (pSTAT5)	IC50 (pSTAT1 (Tyr-701))	Inhibition of normal murine bone marrow colony formation [2]	SMILES	IC50 (tumor cells)	IC50 (STAT3 [3])	IC50 (STAT3 [4])	IC50 (pSTAT3)
improved inhibition	4.7 ± 2.1 µM	10.5 ± 13.4 µM	> 300 µM	35 ± 39.6 µM	inhibited	CC(C)OC(=O)C(C(=O)C(F)(F)F)c1cc(NS(=O)(=O)c2ccc(F)cc2)c2ccccc2c1O (stereo not drawn) [Compound C188-7]	–	–	–	–
improved inhibition	4.5 ± 2.1 µM	3.4 ± 0.9 µM	23 µM	35 ± 25.2 µM	inhibited	CC(C)OC(=O)C(C(=O)C(F)(F)F)c1cc(NS(=O)(=O)c2ccc3c4c(cccc24)C(=O)N3)c2ccccc2c1O (stereo not drawn) [Compound C188-8]	–	–	–	–
improved inhibition	1.5 ± 0.7 µM	3.3 ± 0.2 µM	12 ± 1.4 µM	–	inhibited	O=S(=O)(Nc1cc(Sc2nc[nH]n2)c(O)c2ccccc12)c1ccc(Br)cc1 [Compound C188-15]	–	–	–	–
–	73 ± 17 µM	> 300 µM	> 300 µM	> 300 µM	–	CCc1ccc(S(=O)(=O)Nc2cc3c(C(=O)OCCOC)c(C)oc3c3ccccc23)cc1 [Compound C188-22]	–	–	–	–
–	> 300 µM	> 300 µM	> 300 µM	> 300 µM	–	CC(=O)Nc1ccc(S(=O)(=O)Nc2cccc3ccccc23)cc1 [Compound C188-23]	–	–	–	–
–	> 300 µM	> 300 µM	> 300 µM	> 300 µM	–	O=S(=O)(Nc1cccc2ccccc12)c1ccc(Cl)cc1 [Compound C188-24]	–	–	–	–
–	45 ± 8.5 µM	> 300 µM	> 300 µM	17 µM	–	CC1(C)CC(=O)c2c(oc3c2cc(NS(=O)(=O)c2ccc(Br)cc2)c2ccccc23)C1 [Compound C188-25]	–	–	–	–
–	70.5 ± 70 µM	> 300 µM	> 300 µM	> 300 µM	–	Cc1oc2c(cc(NS(=O)(=O)c3ccc(Cl)cc3)c3ccccc32)c1C(=O)OCc1ccccc1 [Compound C188-30]	–	–	–	–
–	42 ± 7.1 µM	13 µM	> 300 µM	47 µM	–	Cc1cc(C)c(S(=O)(=O)Nc2cc(C(C(=O)OC(C)C)C(=O)C(F)(F)F)c(O)c3ccccc23)cc1C (stereo not drawn) [Compound C188-31]	–	–	–	–
–	48 ± 19.8 µM	7.5 ± 3.6 µM	> 300 µM	3 µM	–	Cc1ccc(S(=O)(=O)Nc2cc3sc(=O)oc3c3ccccc23)c(C)c1 [Compound C188-32]	–	–	–	–
–	20 ± 4.2 µM	7.9 ± 5.8 µM	6 µM	10 µM	–	CC(C)(C)c1ccc(S(=O)(=O)Nc2cc3sc(=O)oc3c3ccccc23)cc1 [Compound C188-33]	–	–	–	–
–	13.5 ± 3.5 µM	> 300 µM	> 300 µM	> 300 µM	–	Cc1cc(S(=O)(=O)Nc2cc3c4c(oc3c3ccccc23)CCCC4=O)ccc1Cl [Compound C188-34]	–	–	–	–
–	31.5 ± 7.8 µM	> 300 µM	> 300 µM	> 300 µM	–	CC(C)(C)c1ccc(S(=O)(=O)Nc2cc3c4c(oc3c3ccccc23)CCCC4=O)cc1 [Compound C188-36]	–	–	–	–
–	24.5 ± 6.4 µM	> 300 µM	> 300 µM	> 300 µM	–	CC(C)c1ccc(S(=O)(=O)Nc2cc3c4c(oc3c3ccccc23)CCCC4)cc1 [Compound C188-37]	–	–	–	–
–	> 300 µM	> 300 µM	> 300 µM	> 300 µM	–	O=S(=O)(Nc1ccc(O)c2ccccc12)c1cccc2cccnc12 [Compound C188-39]	–	–	–	–
–	–	–	–	–	–	NS(=O)(=O)c1cccc2c1C(=O)c1cccc(O)c1C2=O [LLL12]	~5 µM	–	–	–
–	–	–	–	–	–	C[C@@H]1CC(=O)c2c(ccc3c2C(=O)c2cccc(O)c2C3=O)C1 [STA-21]	–	12.2 to 18.7 µM	–	–
–	–	–	–	–	–	O=[N+]([O-])c1ccc2c(c1)S(=O)(=O)C=C2 [Stattic]	–	–	5.1 µM	–
–	–	–	–	–	–	COC(=O)[C@H](Cc1cn(C)cn1)NC(=O)[C@@H](NC(=O)Nc1cc(C(F)(F)F)cc(C(F)(F)F)c1)C(C)C [XZH-5]	–	–	–	20 to 30 µM
